# According to patent US20250108038A1 (priority 2023, published 2025):
# Entries after “also recorded” stand apart in the source; their conditions may differ. Where two headings read alike, the source gives them in different places.
# Experiments:
# [1] = Stability of test articles at different pH values (SGF, SIF, PBS); format: physicochemical; settings: 0.1 mM, 37° C., 0-120 min
# Experimental: FIG. 1A. […] (final concentration 0.1 mM) and the mixture was incubated at 37° C. for 120 min. total. […] Values represent mean+SEM of n=3 separate experiments.
# FIG. 1B. Stability of Compound I-4 in 3 different fluid matrices modeling 3 different body fluids: SGF (gastric, pH 2.0), SIF (upper intestinal, pH 6.0), and PBS (systemic fluid, pH 7.4). […] (final concentration 0.1 mM) and the mixture was incubated at 37° C. for 120 min. total. […] Values represent mean+SEM of n=3 separate experiments.
# 10 mM stock solutions of test articles were prepared in DMSO. From this stock solution, a single concentration in a 10 μL aliquot was added to three fluid matrices: SGF at pH 2.0 (gastric), SIF at pH 6.0 (upper intestine), and PBS at pH 7.4 (systemic fluid). The final volume was 1 mL (0.1 mM).
# LC-MS/MS analysis of test articles was performed on a Waters Acquity UPLC system in-line with a Waters TQ-S triple quadrupole mass spectrometer via an electrospray interface.
# UPLC separation of samples was performed on a Waters BEH Phenyl 2.1×50 column at 40 C. Mobile phase was 0.1% formic acid in water for mobile phase A and 0.1% formic acid in acetonitrile as mobile phase B. Gradient elution was 1% B initial, 65% B to 95% B at 2 minutes, 95% B at 4 minutes, and 1% B at 4.1 minutes. Flow rate was 0.4 mL/min and 5 μL of samples was injected.
# in vitro = settings: for % Remaining / Aa/Ai Mean (N = 2) / T1/2: 2.0 μM; for T1/2: 60 min incubation
# OCT2 = target: T1, OCT2 (Homo sapiens, UniProt O15244); assay: Uptake transporter inhibition assay, OCT2 (metformin)
# T1 sequence (O15244 1-555): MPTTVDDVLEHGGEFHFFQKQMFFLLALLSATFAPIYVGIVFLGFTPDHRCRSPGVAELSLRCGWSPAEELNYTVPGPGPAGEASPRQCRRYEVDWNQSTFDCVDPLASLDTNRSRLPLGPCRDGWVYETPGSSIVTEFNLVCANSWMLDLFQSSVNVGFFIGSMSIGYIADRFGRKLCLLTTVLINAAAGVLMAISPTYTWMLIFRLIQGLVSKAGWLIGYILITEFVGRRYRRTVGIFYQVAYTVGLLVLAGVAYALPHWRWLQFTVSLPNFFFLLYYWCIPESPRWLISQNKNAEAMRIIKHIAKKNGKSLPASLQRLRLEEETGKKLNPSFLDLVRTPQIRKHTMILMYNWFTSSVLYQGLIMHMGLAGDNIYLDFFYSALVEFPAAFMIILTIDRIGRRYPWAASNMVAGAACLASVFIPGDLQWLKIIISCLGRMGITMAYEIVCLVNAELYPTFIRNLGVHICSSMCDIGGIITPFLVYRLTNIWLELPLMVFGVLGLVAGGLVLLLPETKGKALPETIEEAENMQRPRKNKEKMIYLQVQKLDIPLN
# Experimental: Uptake experiments were performed using HEK293 cells stably expressing the respective uptake transporters. The assays were conducted according to the actual SOLVO uptake transporter assay protocols (PR-ASY-UPT-General Protocol for Uptake Transporter Inhibition Assays).
# Cells were cultured at 37° C. in a humidified atmosphere containing 5% CO2 and were plated onto standard 96-well tissue culture plates.
# Before the experiment, the medium was removed, and the cells were washed twice with 100 μL of pre-warmed (37° C.) assay buffer listed in Table 15. The cells were pre-incubated at 37° C. for 30 minutes in assay buffer containing the test article at appropriate concentrations (Table 16), appropriate solvents for solvent controls and the reference inhibitor for reference inhibitor wells. After the pre-incubation step solutions were removed. Uptake experiments were performed at 37° C. in 50 μL of assay buffer containing the probe substrate and the test article or solvent and controls.
# After the experiment, cells were washed twice with 100 μL of appropriate cold buffer and lysed with 150 μL scintillation cocktail. Radiolabeled probe substrate transport was determined by liquid scintillation counting.
# Uptake of the probe substrate in control cells provided background activity values for all data points.
# [2] = 0.04 μM nominal, metformin, IC50 determination, Table 124
# [3] = 0.12 μM nominal, metformin, IC50 determination, Table 124
# [4] = 1.11 μM nominal, metformin, IC50 determination, Table 124
# [5] = 3.00 μM nominal, metformin, Table 123
# [6] = 10.00 μM nominal, metformin, IC50 determination, Table 124
# [7] = 30.00 μM nominal, metformin, IC50 determination, Table 124
# [8] = 30.00 μM nominal, metformin, Table 123
# [9] = 0.14 μM nominal, 0.09 μM NSB corrected, follow-up assay
# [10] = 1.24 μM nominal, 0.86 μM NSB corrected, follow-up assay
# [11] = 10.00 μM nominal, 6.60 μM NSB corrected
# [12] = 11.11 μM nominal, 7.89 μM NSB corrected, follow-up assay
# [13] = 33.33 μM nominal, 24.33 μM NSB corrected, follow-up assay
# [14] = 100.00 μM nominal, 77.00 μM NSB corrected
# [15] = 100.00 μM nominal, 100.00 μM NSB corrected, follow-up assay
# [16] = […] nominal, 1.89 μM NSB corrected, follow-up assay
smiles,measurement,setting,value
COCCOC1(c2ccc(Cl)cc2)c2ccccc2C2=NCCN21 (stereo not shown) [Compound I-4],Stability (% parent compound remaining),"[1]; PBS (systemic fluid, pH 7.4)",no significant change in the amount of parent compound; also recorded: stable in all three fluid matrices
same,Stability (% parent compound remaining),"[1]; SGF (gastric, pH 2.0)",no significant change in the amount of parent compound; also recorded: stable in all three fluid matrices
same,Stability (% parent compound remaining),"[1]; SIF (upper intestinal, pH 6.0)",no significant change in the amount of parent compound; also recorded: stable in all three fluid matrices
same,Compound A formed (Aa/Ai),in vitro; 0 min,0.57
same,% Remaining,in vitro; 0 min,100%
same,Aa/Ai Mean (N = 2),in vitro; 0 min,3.25
same,% Remaining,in vitro; 5 min,95.0%
same,Aa/Ai Mean (N = 2),in vitro; 5 min,3.08
same,% Remaining,in vitro; 15 min,99.6%
same,Aa/Ai Mean (N = 2),in vitro; 15 min,3.23
same,% Remaining,in vitro; 30 min,90.8%
same,Aa/Ai Mean (N = 2),in vitro; 30 min,2.95
same,% Remaining,in vitro; 60 min,83.6%
same,Aa/Ai Mean (N = 2),in vitro; 60 min,2.72
same,T1/2,in vitro,>3.12 h
same,Compound A formed (Aa/Ai),in vitro; 5 min,0.66
same,Compound A formed (Aa/Ai),in vitro; 15 min,0.58
same,Compound A formed (Aa/Ai),in vitro; 30 min,0.52
same,Compound A formed (Aa/Ai),in vitro; 60 min,0.42
"OC1(c2ccc(Cl)cc2)c2ccccc2C2=NCCN21 (stereo not shown) [Compound A, 5-(4-chlorophenyl)-2,3-dihydroimidazo[1,2-b]isoindol-5-ol, reference compound]",IC50,OCT2,3.49 µM
same,Relative transporter specific accumulation,OCT2; [2],109.28 ± 6.45 % of control
same,Transporter specific accumulation,OCT2; [2],259.00 ± 13.36 cpm
same,Relative transporter specific accumulation,OCT2; [3],106.33 ± 3.85 % of control
same,Transporter specific accumulation,OCT2; [3],252.00 ± 5.57 cpm
same,Relative transporter specific accumulation,OCT2; [4],84.39 ± 4.06 % of control
same,Transporter specific accumulation,OCT2; [4],200.00 ± 7.72 cpm
same,Relative transporter specific accumulation,OCT2; [5],51.42 ± 3.71 % of control
same,Transporter specific accumulation,OCT2; [5],150.67 ± 6.96 cpm
same,Relative transporter specific accumulation,OCT2; [6],25.88 ± 3.39 % of control
same,Transporter specific accumulation,OCT2; [6],61.33 ± 7.84 cpm
same,Relative transporter specific accumulation,OCT2; [7],9.42 ± 0.99 % of control
same,Transporter specific accumulation,OCT2; [7],22.33 ± 2.26 cpm
same,Relative transporter specific accumulation,OCT2; [8],13.54 ± 1.38 % of control
same,Transporter specific accumulation,OCT2; [8],39.67 ± 3.38 cpm
same,inhibition at 10 µM,"OCT2; human, Maximum % inhibition, OCT2, HEK293 cells, metformin (10 μM), NIO: no inhibition observed",91%
same,inhibition at 0.04 μM,"OCT2; human, Relative Inhibition, 0.04 μM nominal, metformin, IC50 determination, Table 124",-9%
same,inhibition at 0.12 μM,"OCT2; human, Relative Inhibition, 0.12 μM nominal, metformin, IC50 determination, Table 124",-6%
same,inhibition at 1.11 μM,"OCT2; human, Relative Inhibition, 1.11 μM nominal, metformin, IC50 determination, Table 124",16%
same,inhibition at 10 µM,"OCT2; human, Relative Inhibition, 10.00 μM nominal, metformin, IC50 determination, Table 124",74%
same,inhibition at 30 μM,"OCT2; human, Relative Inhibition, 30.00 μM nominal, metformin, IC50 determination, Table 124",91%
same,inhibition at 3 μM,"OCT2; human, Relative inhibition, 3.00 μM nominal, metformin, Table 123",49%
same,inhibition at 30 μM,"OCT2; human, Relative inhibition, 30.00 μM nominal, metformin, Table 123",86%
Clc1ccc(C2(OCC3OCCO3)c3ccccc3C3=NCCN32)cc1 (stereo not shown) [Compound I-19],Stability (% parent compound remaining),"[1]; PBS (systemic fluid, pH 7.4)",time-dependent decrease in the amount; also recorded: some lack of stability
same,Stability (% parent compound remaining),"[1]; SGF (gastric, pH 2.0)",time-dependent decrease in the LCMSMS peak area until 20 min; also recorded: some lack of stability over 15 min
same,Relative inhibition,OCT2; [9],1%
same,Relative transporter specific accumulation,OCT2; [9],98.93 ± 6.26 % of control
same,Transporter specific accumulation,OCT2; [9],339.33 ± 6.18 cpm
same,Relative inhibition,OCT2; [10],19%
same,Relative transporter specific accumulation,OCT2; [10],81.44 ± 5.58 % of control
same,Transporter specific accumulation,OCT2; [10],279.33 ± 8.96 cpm
same,Relative inhibition,OCT2; [11],69%
same,Relative transporter specific accumulation,OCT2; [11],30.61 ± 3.54 % of control
same,Transporter specific accumulation,OCT2; [11],126.00 ± 14.46 cpm
same,Relative inhibition,OCT2; [12],60%
same,Relative transporter specific accumulation,OCT2; [12],39.65 ± 3.63 % of control
same,Transporter specific accumulation,OCT2; [12],136.00 ± 9.32 cpm
same,Relative inhibition,OCT2; [13],87%
same,Relative transporter specific accumulation,OCT2; [13],12.63 ± 3.35 % of control
same,Transporter specific accumulation,OCT2; [13],43.33 ± 11.20 cpm
same,Relative inhibition,OCT2; [14],98%
same,Relative transporter specific accumulation,OCT2; [14],1.78 ± 0.65 % of control
same,Transporter specific accumulation,OCT2; [14],7.33 ± 2.67 cpm
same,Relative inhibition,OCT2; [15],97%
same,Relative transporter specific accumulation,OCT2; [15],3.16 ± 1.38 % of control
same,Transporter specific accumulation,OCT2; [15],10.83 ± 4.69 cpm
same,maximum inhibition of OCT2-mediated metformin accumulation,"OCT2; 2-concentration assay, 100 μM (Compound A 30 μM)",98%
same,Maximum % inhibition,"OCT2; OCT2, HEK293 cells, metformin (10 μM), NIO: no inhibition observed",97%
same,Relative inhibition,OCT2; [16],29%
same,Relative transporter specific accumulation,OCT2; [16],70.94 ± 7.30 % of control
same,Transporter specific accumulation,OCT2; [16],243.33 ± 20.22 cpm
same,maximum inhibition of OCT2-mediated metformin accumulation,OCT2; follow-up assay,97%
same,IC50,"OCT2; follow-up assay, NSB-corrected concentrations for Compound I-19",8.95 µM
same,Compound A formed (Aa/Ai),in vitro; 0 min,0.60
same,% Remaining,in vitro; 0 min,100%
same,Aa/Ai Mean (N = 2),in vitro; 0 min,1.62
same,% Remaining,in vitro; 5 min,99.1%
same,Aa/Ai Mean (N = 2),in vitro; 5 min,1.61
same,% Remaining,in vitro; 15 min,98.2%
same,Aa/Ai Mean (N = 2),in vitro; 15 min,1.59
same,% Remaining,in vitro; 30 min,92.8%
same,Aa/Ai Mean (N = 2),in vitro; 30 min,1.50
same,% Remaining,in vitro; 60 min,79.6%
same,Aa/Ai Mean (N = 2),in vitro; 60 min,1.29
same,T1/2,in vitro,2.97 h
same,Compound A formed (Aa/Ai),in vitro; 5 min,0.59
same,Compound A formed (Aa/Ai),in vitro; 15 min,0.57
same,Compound A formed (Aa/Ai),in vitro; 30 min,0.52
same,Compound A formed (Aa/Ai),in vitro; 60 min,0.47
